# Laboratory results reported in patent US6765096B1, “Tricyclic compound having acyloxymethoxycarbonyl side chain” (Shionogi & Co., Ltd., priority 1999, dated 2004).
# Tests used:
# [1] = test system: anti-ovalbumin (OVA) IgE antibody production; assay: IgE antibody production inhibiting effects against anti-ovalbumin (OVA); anti-OVA IgE antibody titer (PCA titer); type: in vivo, BALB/c mice; conditions: consecutive 10 days, OVA-immunized BALB/c mouse, Log2 of maximum serum dilution giving PCA positive reaction in Wistar rat
# Description: Test Example 1 IgE Antibody Production Inhibiting Effects Against Anti-ovalbumin (OVA)
# BALB/c mice (female, 8-10 weeks old) and Wistar rats (female, 8-10 weeks old) purchased from Japan SLC (Shizuoka) were used.
# 2) Method of Immunization
# 0.2 mL of a solution obtained by suspending 2 μg of ovalbumin (OVA) and 2 mg of aluminium hydroxide gel in a physiological saline was injected in a BALB/c mouse intraperitoneally to immunize it. After ten days, blood was taken from the heart, serum was separated, and stored at −40° C. until the IgE antibody titer was measured.
# […] Administration was carried out for consecutive 10 days from an immunization day to the day before a blood collection day.
# 4) Measurement of Anti-OVA IgE Antibody Titer (PCA Titer)
# The resulting mouse serum was prepared into a 2-fold dilution series using a physiological saline, each 50 μl of which was injected to a pre-haircut Wistar rat intracutaneously at a back. After 24 hours, 0.5 mL of a physiological saline containing 1 mg of OVA and 5 mg of Evans Blue pigment was injected intravenously to induce passive cutaneous anaphylaxis reaction (PCA). After 30 minutes, a maximum dilution rate of the serum showing PCA positive reaction of a pigment spot having a diameter of 5 mm or more was determined, and Log2 of its dilution rate was adopted as a PCA titer. For example, when a serum becomes PCA reaction positive until 2^7-fold dilution, an anti-OVA IgE antibody titer of the mouse is 7.
# [2] = Oral absorption test, fasting rat (Test Examples 2 and 3); type: in vivo, Jcl:SD male rat; conditions: rat 18 hours fasting
# Description: Test Example 2 Oral Absorption Test
# (§1) The present compound (I-1) was ground with an agate mortar, which was prepared into an aqueous suspension having the concentration of 10 mg/mL using a 0.5% aqueous methylcellulose solution as a vehicle. Each compound was orally administered to a Jcl:SD male rat (10 weeks old, 18 hours fasting) as a parent compound at a rate of 20 mg/kg. 0.5, 1, 2, 4, 6, 8 and 24 hours after administration, 0.3 mL of blood was taken from a cannula inserted in rat jugular in advance. The blood was centrifuged to obtain a plasma. 0.5 mL of a mixed solution of methanol and acetonitrile (1/1 (w/w)) was added to 0.1 mL of the plasma, proteins were removed therefrom, followed by centrifugation. The supernatant was used as a HPLC sample.
# The oral absorbabilities of the present compound (I-163) and its parent compound (II-4) were measured as in Test Example 2.
# [3] = Oral absorption test, non-fasting rat (Test Example 4); type: in vivo
# Description: as §1
# Test Example 4 Oral Absorption Test
# The oral absorbabilities of the present compound (I-16) and its parent compound (II-1) were measured as in Test Example 2 using a non-fasting rat.
# [4] = oral administration, only parent compound (II-1) observed
# [5] = plasma concentration of parent compound after oral administration, 20 mg/kg as parent compound
# [6] = plasma concentration of parent compound (II-1) after oral administration
smiles,measurement,setting,value
CC(C)=CCOc1ccc(-c2cc(C)c(-c3ccc(N(CC=C(C)C)C(=O)OCOC(=O)CCC(N)=O)cc3F)cc2C)cn1 [Compound I-1],anti-OVA IgE antibody titer (PCA titer),[1]; 3 mg/Kg orally,7.0
same,anti-OVA IgE antibody titer (PCA titer),[1]; 10 mg/Kg orally,0.8
same,administered prodrug itself in the circulating plasma,[2]; [4],not detected
same,AUC,[2]; [5],32.03 µg·h/mL
same,Cmax,[2]; [5],2.50 µg/mL
"CC(=O)NC(CCC(=O)OCOC(=O)N(CC=C(C)C)c1ccc(-c2cc(C)c(-c3ccc(OCC=C(C)C)nc3)cc2C)c(F)c1)C(N)=O (stereo not drawn) [Compound I-6, 4-acetylamino-4-carbamoyl-butyric acid [{2-fluoro-2′,5′-dimethyl-4′-[6-(3-methyl-but-2-enyloxy)-pyridin-3-yl]-biphenyl-4-yl}-(3-methyl-but-2-enyl)-carbamoyloxy]-methyl ester]",anti-OVA IgE antibody titer (PCA titer),[1]; 10 mg/Kg orally,1.8
"CC(=O)NC(CC(N)=O)C(=O)OCOC(=O)N(CC=C(C)C)c1ccc(-c2cc(C)c(-c3ccc(OCC=C(C)C)nc3)cc2C)c(F)c1 (stereo not drawn) [Compound I-13, 2-acetylamino-succinamic acid [{2-fluoro-2′,5′-dimethyl-4′-[6-(3-methyl-but-2-enyloxy)-pyridin-3-yl]-biphenyl-4-yl}-((E)-3-methyl-but-2-enyl)-carbamoyloxy]-methylester]",anti-OVA IgE antibody titer (PCA titer),[1]; 10 mg/Kg orally,<0
"CC(=O)NC(CCC(N)=O)C(=O)OCOC(=O)N(CC=C(C)C)c1ccc(-c2cc(C)c(-c3ccc(OCC=C(C)C)nc3)cc2C)c(F)c1 (stereo not drawn) [Compound I-15, 2-acetylamino-4-carbamoyl-butyric acid [{2-fluoro-2′,5′-dimethyl-4′-[6-(3-methyl-but-2-enyloxy)-pyridin-3-yl]-biphenyl-4-yl}-((E)-3-methyl-but-2-enyl)-carbamoyloxy]-methyl ester]",anti-OVA IgE antibody titer (PCA titer),[1]; 10 mg/Kg orally,0
"CC(=O)NCC(=O)NCC(=O)OCOC(=O)N(CC=C(C)C)c1ccc(-c2cc(C)c(-c3ccc(OCC=C(C)C)nc3)cc2C)c(F)c1 [Compound I-16, (2-acetylamino-ethanoylamino)-acetic acid [{2-fluoro-2′,5′-dimethyl-4′-[6-(3-methyl-but-2-enyloxy)-pyridin-3-yl]-biphenyl-4yl]}-((E)-3-methyl-but-2-enyl)-carbamoyloxy]-methyl ester]",administered prodrug itself in the circulating plasma,[3]; [4],not detected
same,AUC,[3]; [6],165.52 µg·h/mL
same,Cmax,[3]; [6],16.02 µg/mL
same,anti-OVA IgE antibody titer (PCA titer),[1]; 10 mg/Kg orally,<0
